Assay [1] deals with contractility of the heart. The experiment in a line: Positive inotropic effect (increase in max dP/dt) in reserpine-pretreated, anaesthetized cats, i.v. dosing. The class given is in vivo. The settings on record: continuous infusion. How it is done:
The positive inotropic effect and the cardioselectivity of the compounds were studied in cats with an average weight of 3 kg. The animals were pretreated with reserpine (5 mg/kg i.p.) about 16 hours before experiment. This treatment eliminated the reflex sympathetic control of the heart and the vascular tonus. Following pentobarbital anaesthesia (Mebumal^e, 30 mg/kg i.p.) artificial air respiration was started. The two vagus nerves were cut and the adrenal glands were excluded from the circulation by means of ligatures on the adrenal veins.
Blood pH, pC02 and p02 were kept within the normal ranges throughout the experiments. All recordings were made on a Grass Polygraph. Heart rate, pressure in the left ventricle (LVP), the first derivative of LVP (dP/dt), intra-arterial blood pressure and peripheral resistance were recorded. LVP was recorded via a catheter tip pressure transducer (Millar), which was inserted via the left carotid artery. This.pressure curve was differentiated and max dP/dt was recorded by means of a peak detector. The recording of max dP/dt was linear up to 20 […]. The increase in max dP/dt was used as a measure of the increased contractility of the heart.
The substances were administered intravenously in increasing doses. […]

In assay [2] the test system is inotropic effect (max dF/dt) in the aorta. The assay can be described thus: Duration of positive inotropic action (decline of max dF/dt in the aorta) in conscious dogs, i.v. dosing. The settings on record: conscious beagle dogs, intravenous. The class given is in vivo. How it is done: The duration of action of the compounds has been studied in conscious beagle dogs. An electromagnetic flow probe was inplanted on the ascending aorta for determination of the r inotropic effect measured as maximal flow acceleration (max dF/dt) in the aorta. For determination of blood pressure catheters were inplanted in thoracic aorta and .left atrium. Increasing doses of the substances were administered intravenously and the decline of inotropic effect (max dF/dt) was used for determination of duration.

The results in this text go back to patent EP0064487A1, “New substituted 3-(parasubstituted)phenoxy-1-alkylamino-propanol-2-s, as well as process for their preparation, pharmaceutical preparations containing same, and method for treating cardiac failure” (priority 1981, dated 1982).

Each structure is given as a SMILES string.

For the compound `CC(C)NCC(O)c1ccc(O)c(O)c1` (centres unmarked) [isoprenaline], in assay [1], the Half maximal effect worked out at 0.004 µmol/kg/min. The “time for 50% decline of the positive inotropic effect (max dF/dt)” value in assay [2] was “less than 1 min”.
